Results on ten molecules are retold here after patent US20230233569A1 (Revolution Medicines, Inc., priority 2020, published 2023).

Experiment in all cases: Disruption of BRAF RBD interaction with Ras (FRET / MOA assay, with Cyclophilin A)
Common to all, as to assay type: biochemical

For one experiment, the target named is KRAS G12C (Homo sapiens, UniProt P01116+P62937, G12C). Particulars: KRAS G12C; read-out: KRAS G12C FRET data IC50. An excerpt: (§1) This protocol may also be executed substituting other Ras proteins or nucleotides.
KRAS G12C, sequence (P01116 1-169 isoform P01116-2 G12C): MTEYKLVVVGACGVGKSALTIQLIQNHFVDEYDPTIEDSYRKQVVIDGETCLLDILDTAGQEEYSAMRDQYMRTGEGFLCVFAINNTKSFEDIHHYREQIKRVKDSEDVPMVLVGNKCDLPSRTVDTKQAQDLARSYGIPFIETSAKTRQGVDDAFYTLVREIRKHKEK
KRAS G12C, sequence (P62937 whole entry, canonical isoform): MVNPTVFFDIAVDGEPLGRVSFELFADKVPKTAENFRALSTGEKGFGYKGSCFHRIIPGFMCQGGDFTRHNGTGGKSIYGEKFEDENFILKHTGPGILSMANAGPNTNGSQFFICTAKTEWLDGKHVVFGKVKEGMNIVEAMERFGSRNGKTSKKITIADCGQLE
(§2) The purpose of this biochemical assay was to measure the ability of test compounds to facilitate ternary complex formation between a nucleotide-loaded K-Ras isoform and Cyclophilin A; the resulting ternary complex disrupts binding to a BRAF^RBD construct, inhibiting K-Ras signaling through a RAF effector. Data is reported as IC50 values.
(§3) Compound was present in plate wells as a 10-point 3-fold dilution series starting at a final concentration of 30 μM. After incubation at 25° C. for 3 hours, a mixture of Anti-His Eu-W1024 and anti-GST allophycocyanin was then added to assay sample wells at final concentrations of 10 nM and 50 nM, respectively, and the reaction incubated for an additional 1.5 hours. […] Compounds that facilitate disruption of a K-Ras:RAF complex were identified as those eliciting a decrease in the TR-FRET ratio relative to DMSO control wells.
(§4) The purpose of this biochemical assay was to measure the ability of test compounds to facilitate ternary complex formation between a nucleotide-loaded K-Ras isoform and Cyclophilin A; the resulting ternary complex disrupts binding to a BRAF^RBDD construct, inhibiting K-Ras signaling through a RAF effector. Data is reported as IC50 values.

Another experiment addresses KRAS G12D (Homo sapiens, UniProt P01116+P62937, G12D). Particulars: read-out: KRAS G12D FRET data, IC50.
Excerpt: as §1, §2, §3, §4

The target in a further experiment is KRAS G12S (Homo sapiens, UniProt P01116+P62937, G12S). Particulars: read-out: KRAS G12S FRET data, IC50.
KRAS G12S, sequence (P01116 1-169 isoform P01116-2 G12S limits assumed): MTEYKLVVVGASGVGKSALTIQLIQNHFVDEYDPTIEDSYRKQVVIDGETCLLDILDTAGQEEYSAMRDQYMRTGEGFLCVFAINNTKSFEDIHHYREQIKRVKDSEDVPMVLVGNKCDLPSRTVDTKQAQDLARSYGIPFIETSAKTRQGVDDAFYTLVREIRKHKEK
KRAS G12S, sequence (P62937 whole entry): as the sequence (P62937 whole entry, canonical isoform) above
Excerpt: as §1, §2, §3, §4

A further experiment concerns the target KRAS G12V (Homo sapiens, UniProt P01116+P62937, G12V). The note with it: KRAS G12V; read-out: KRAS G12V FRET data IC50.
Excerpt: as §1, §2, §3, §4

A further experiment concerns the target KRAS G13C (Homo sapiens, UniProt P01116+P62937, G13C).
Excerpt: as §1, §2, §3, §4

Another experiment has as its target KRAS WT (Homo sapiens, UniProt P01116+P62937). The note with it: KRAS WT; read-out: KRAS WT FRET data IC50.
Excerpt: as §1, §2, §3, §4

[1] abbreviates: KRAS G13C, read-out: KRAS G13C FRET data IC50.

“And” between values parts separate entries of the source, which are not always exact repeats. Equal values may be shown once. Read-outs that look alike come from different tables or passages of the source.

KRAS G13C, sequence (P01116 1-169 isoform P01116-2 G13C): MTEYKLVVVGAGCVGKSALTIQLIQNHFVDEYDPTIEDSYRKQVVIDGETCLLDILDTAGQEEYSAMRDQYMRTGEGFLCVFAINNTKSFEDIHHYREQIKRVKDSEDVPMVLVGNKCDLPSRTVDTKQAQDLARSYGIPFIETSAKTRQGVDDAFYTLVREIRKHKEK
KRAS G13C, sequence (P62937 whole entry): as the sequence (P62937 whole entry, canonical isoform) above
KRAS WT, sequence (P01116 1-169 isoform P01116-2 limits assumed): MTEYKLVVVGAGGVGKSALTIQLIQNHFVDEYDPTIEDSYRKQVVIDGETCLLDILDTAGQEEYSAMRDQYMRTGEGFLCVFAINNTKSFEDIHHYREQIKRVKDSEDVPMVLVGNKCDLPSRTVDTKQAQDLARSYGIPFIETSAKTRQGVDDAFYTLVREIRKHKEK
KRAS WT, sequence (P62937 whole entry): as the sequence (P62937 whole entry, canonical isoform) above
KRAS G12D, sequence (P01116 1-169 isoform P01116-2 G12D limits assumed): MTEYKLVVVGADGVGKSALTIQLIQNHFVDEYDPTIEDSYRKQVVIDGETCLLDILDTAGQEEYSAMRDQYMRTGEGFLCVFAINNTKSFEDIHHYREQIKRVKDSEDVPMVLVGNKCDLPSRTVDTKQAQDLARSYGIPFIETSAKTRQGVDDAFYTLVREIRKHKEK
KRAS G12D, sequence (P62937 whole entry): as the sequence (P62937 whole entry, canonical isoform) above
KRAS G12V, sequence (P01116 1-169 isoform P01116-2 G12V limits assumed): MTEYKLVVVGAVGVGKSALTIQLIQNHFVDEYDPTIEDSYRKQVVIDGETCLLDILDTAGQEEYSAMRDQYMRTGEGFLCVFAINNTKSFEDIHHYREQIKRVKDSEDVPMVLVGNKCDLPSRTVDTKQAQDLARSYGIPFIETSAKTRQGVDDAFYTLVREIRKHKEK
KRAS G12V, sequence (P62937 whole entry): as the sequence (P62937 whole entry, canonical isoform) above

In general, IC50 refers to the concentration that inhibits the measured activity by half. In the case of `CCn1c(-c2ccccc2CCOC)c2c3cc(ccc31)-c1cc(O)cc(c1)C[C@H](NC(=O)[C@H](C(C)C)N(C)C(=O)C1CCN(C(=O)/C=C/CN(C)C)CC1)C(=O)N1CCC[C@H](N1)C(=O)OCC(C)(C)C2` [Example A019], the IC50 on KRAS G12C is 100 to 1000 nM; on KRAS G12D, above 10000 nM; at KRAS G12S it was 1000 to 10000 nM; at KRAS G12V, above 10000 nM; at KRAS G13C (setting [1]) it was 1000 to 10000 nM; at KRAS WT, 1000 to 10000 nM.

In the case of `C=CC(=O)N1CC[C@H](C(=O)N(C)[C@H](C(=O)N[C@H]2Cc3cc(O)cc(c3)-c3ccc4c(c3)c(c(-c3ccc(CC(=O)O)cc3)n4CC)CC(C)(C)COC(=O)[C@@H]3CCCN(N3)C2=O)C(C)C)C1` [Example A021], the IC50 on KRAS G12C is 1000 to 10000 nM; on KRAS G12D it was above 10000 nM; at KRAS G12S, above 10000 nM; on KRAS G12V, above 10000 nM; at KRAS G13C (setting [1]) it was above 10000 nM; at KRAS WT, above 10000 nM.

As for `C=CC(=O)N1CC[C@H](C(=O)N(C)[C@H](C(=O)N[C@H]2Cc3cc(O)cc(c3)-c3ccc4c(c3)c(c(-c3ccccc3[C@@H](C)OC)n4CC)CC(C)(C)COC(=O)[C@@H]3CCCN(N3)C2=O)C(C)C)C1` [Example A029], the half-maximal inhibitory concentration (IC50) was in the range of 10 to 100 nM on KRAS G12C; 1000 to 10000 nM at KRAS G12D; 100 to 1000 nM at KRAS G12S; 100 to 1000 nM on KRAS G12V; 100 to 1000 nM on KRAS G13C (setting [1]); 100 to 1000 nM on KRAS WT.

Regarding `C=CC(=O)N1CC[C@H](C(=O)N(C)[C@H](C(=O)N[C@H]2Cc3cc(O)cc(c3)-c3ccc4c(c3)c(c(-c3cccc(CN(C)C)c3)n4CC)CC(C)(C)COC(=O)[C@@H]3CCCN(N3)C2=O)C(C)C)C1` [Example A030], the IC50 at KRAS G12C is 100 to 1000 nM; at KRAS G12D it was above 10000 nM; at KRAS G12S it was 1000 to 10000 nM; on KRAS G12V, 1000 to 10000 nM; at KRAS G13C (setting [1]) it was 1000 to 10000 nM; on KRAS WT, 1000 to 10000 nM.

`C=CC(=O)N1CC2(CCN([C@H](C(=O)N[C@H]3Cc4cc(O)cc(c4)-c4ccc5c(c4)c(c(-c4ccccc4CCOC)n5CC)CC(C)(C)COC(=O)[C@@H]4CCCN(N4)C3=O)C(C)C)C2=O)C1` [Example A031]: the IC50 on KRAS G12C was 10 to 100 nM; at KRAS G12D, above 10000 nM; on KRAS G12S, 1000 to 10000 nM; at KRAS G12V, 1000 to 10000 nM; at KRAS G13C (setting [1]) it was 10 to 100 nM; at KRAS WT, 1000 to 10000 nM.

Regarding `C=CC(=O)N1CC[C@H](C(=O)N(C)[C@H](C(=O)N[C@H]2Cc3cc(OC(=O)CCC(=O)O)cc(c3)-c3ccc4c(c3)c(c(-c3ccccc3CCOC)n4CC)CC(C)(C)COC(=O)[C@@H]3CCCN(N3)C2=O)C(C)C)C1` [Example A032], the IC50 was 10 to 100 nM and 1000 to 10000 nM at KRAS G12C; above 10000 nM at KRAS G12D; 100 to 1000 nM and > 10000 nM on KRAS G12S; 1000 to 10000 nM and > 10000 nM on KRAS G12V; 1000 to 10000 nM and > 10000 nM at KRAS G13C (setting [1]); 1000 to 10000 nM and > 10000 nM at KRAS WT.

Turning to `C=CC(=O)N1CCC(C(=O)N(C)[C@H](C(=O)N[C@H]2Cc3cc(O)cc(c3)-c3ccc4c(c3)c(c(-c3ccccc3CN(C)C)n4CC)CC(C)(C)COC(=O)[C@@H]3CCCN(N3)C2=O)C(C)C)CC1` [Example A033], the IC50 at KRAS G12C was 100 to 1000 nM; on KRAS G12D, above 10000 nM; at KRAS G12S, 1000 to 10000 nM; on KRAS G12V, above 10000 nM; at KRAS G13C (setting [1]) it was 100 to 1000 nM; on KRAS WT, 1000 to 10000 nM.

As to `C=CC(=O)N1CC[C@H](C(=O)N(C)[C@H](C(=O)N[C@H]2Cc3cc(O)cc(c3)-c3ccc4c(c3)c(c(-c3ccc(N5CCN(C)CC5)nc3)n4CC)CC(C)(C)COC(=O)[C@@H]3CCCN(N3)C2=O)C(C)C)C1` [Example A089], the IC50 at KRAS G12D was above 10000 nM.

With `C=CC(=O)N1CC[C@H](C(=O)N(C)[C@H](C(=O)N[C@H]2Cc3cc(O)cc(c3)-c3ccc4c(c3)c(c(-c3cnccc3[C@H](C)OC)n4CC)CC(C)(C)COC(=O)[C@@H]3CCCN(N3)C2=O)C(C)C)C1` [Example A112], at KRAS G12C, the IC50 was below 10 nM.

Regarding `CCn1c(-c2cccnc2[C@H](C)OC)c2c3cc(ccc31)-c1csc(n1)C[C@H](NC(=O)[C@H](C(C)C)N(C)C(=O)O[C@H]1CCN(C)C1)C(=O)N1CCC[C@H](N1)C(=O)OCC(C)(C)C2` [Example A173], the IC50 on KRAS G13C (read-out: KRAS G13C FRET data, IC50) lay within 1000 to 10000 nM.
